Patent US8859783B2, “Indirubin-3′-oxime derivatives as potent cyclin dependent kinase inhibitors” (Anygen Co., Ltd., priority 2010, dated 2014)
Values joined by “and” are separate entries in the source; they are usually repeats but may differ in a detail not shown here. Identical values can stand only once.

Experiments:
[1] = system: MCF-7 human breast cancer cell; experiment: SRB cell proliferation assay, MCF-7; type: cell-based; conditions: MCF7, 72 h, 3 days
Procedure: (§1) ^a A series of indirubin derivatives were tested at five concentrations for their effects on various human cancer cell lines using SRB assay, as described in the Experimental Section.
(§2) Cells (A549, HT1080, HCT116, K562, SNU638, KB, MCF-7) were counted, diluted to 5×10^4 cells/mL with fresh medium (MEME, DMEM or RPMI containing 10% FBS), and added 190 μL of cell suspension to 96-well plates containing various concentrations of test compounds (10 μL in 10% aqueous DMSO). Test plates were incubated for 3 days at 37° C. in CO2 incubator. For zero day controls, cells were incubated for 30 min at 37° C. in CO2 incubator. All treatments were performed in triplicate. After the incubation periods, cells were fixed with 50 μL of cold 50% TCA at 4° C. for 30 min, washed 5 times with tap water, and air-dried. The fixed cells were stained with 0.4% SRB solution in 1% aqueous acetic acid at room temperature for 1 h. Free SRB solution was then removed by rinsing 5 times with 1% acetic acid, and air-dried. The bound dye was dissolved with 200 µL of 10 mM Tris-base (pH 10.0), and absorbance was determined at 515 nm using an ELISA microplate reader. Finally, the absorbance values obtained with each of the treatment procedures were averaged, and the average values obtained with the zero day control were subtracted.

[2] = system: KB human nasopharyngeal cancer cell; experiment: SRB cell proliferation assay, KB; type: cell-based; conditions: 72 h, 3 days
Procedure: as §1, §2

[3] = system: SNU638 human stomach cancer cell; experiment: SRB cell proliferation assay, SNU638; type: cell-based; conditions: SNU-638, 72 h, 3 days
Procedure: as §1, §2

[4] = system: HCT116 human colon cancer cell; experiment: SRB cell proliferation assay, HCT116; type: cell-based; conditions: 3 days
Procedure: as §1, §2

[5] = biological target: T1, CDK2/cyclin E (Homo sapiens, UniProt P24941); experiment: CDK2/cyclin E kinase assay; type: biochemical; conditions: for IC50: ten concentrations, dose response curves, read-out: CDK2/cyclin E inhibitory activity IC50; for CDK2 potency relative to compound 1: higher potency than 1
T1 construct: purchased Milipore (Billerica, Mass.)
Procedure: CDK1/cyclin B, CDK2/cyclin E were purchased from Milipore (Billerica, Mass.). The kinase activity was tested in buffer (8 mM MOPS pH 7.0, 0.2 mM EDTA, 10 mM MgAcetate), with 0.1 mg/mL histone H1, in the presence of 45 µM [—^33P] ATP (500 cpm/pmol) for CDK1 or 120 μM [γ—^33P] ATP (500 cpm/pmol) for CDK2 in a final reaction volume of […]. The reaction was initiated by the addition of the MgATP mix. After incubation for 40 min at 30° C., the reaction was stopped by the addition of 5 μL of 3% phosphoric acid solution. 10 μL aliquots of supernatant were spotted onto 2.5 cm×3 cm pieces of Whatman […] phosphocellulose paper, and 20 s later, the filters were washed three times for 5 min in 75 mM phosphoric acid and once in methanol prior to drying. The […] filters were counted in the presence of 1 mL of ACS (Amersham) scintillation fluid. The activities are usually expressed as a percentage of the maximal activity, i.e., in the absence of inhibitors. Controls were applied with appropriate dilutions of DMSO.

[6] = system: HT1080 human fibro sarcoma cell; experiment: SRB cell proliferation assay, HT1080; type: cell-based; conditions: HT-1080, 72 h, 3 days
Procedure: as §1, §2

[7] = system: K562 human leukemia cell; experiment: SRB cell proliferation assay, K562; type: cell-based; conditions: K562, 72 h, 3 days
Procedure: as §1, §2

[8] = system: A549 human lung cancer cell; experiment: SRB cell proliferation assay, A549; type: cell-based; conditions: A549, 72 h, 3 days
Procedure: as §1, §2

[9] = system: several human cancer cell lines; experiment: SRB cell proliferation assay, summary over cell lines; type: cell-based; conditions: for IC50: Homo sapiens, range over cell lines, read-out: anti-proliferative IC50, range over cancer cell lines
Procedure: as §1, §2

Compound | IC50 [1] | IC50 [2] | IC50 [3] | IC50 ([4]; Homo sapiens, HCT-116, 72 h) | IC50 [5] | IC50 [6] | IC50 [7] | IC50 [8] | anti-proliferative activity in words [9] | CDK2 potency relative to compound 1 [5] | IC50 [9] | IC50 [4] | selectivity for CDK2 over CDK1 ([5]; CDK2 vs CDK1) | CDK2 inhibitory effect relative to 16b ([5]; enhanced compared with 16b)
COc1ccc2c(c1)C(=NO)/C(=C1/C(=O)Nc3ccc(OC(F)(F)F)cc31)N2 [Compound 16c, (2′Z, 3′E)-5′-Methoxy-5-trifluoromethoxy-indirubin-3′-oxime] | 13 µM | 20 µM | > 20 µM | > 20 µM | 8.62 µM | > 20 µM | > 20 µM | > 20 µM | – | – | – | – | – | –
Cc1ccc2c(c1)C(=NO)/C(=C1/C(=O)Nc3ccc(F)cc31)N2 [Compound 14c, (2′Z, 3′E)-5′-Methyl-5-fluoro-indirubin-3′-oxime] | 10.5 µM | 10.6 µM | 11.5 µM | > 20 µM | – | > 20 µM | > 20 µM | > 20 µM | – | – | – | – | – | –
COc1ccc2c(c1)C(=NO)/C(=C1/C(=O)Nc3ccc([N+](=O)[O-])cc31)N2 [Compound 16a, (2′Z, 3′E)-5′-Methoxy-5-nitro-indirubin-3′-oxime] | > 20 µM | > 20 µM | > 20 µM | > 20 µM | 2.95 µM | > 20 µM | > 20 µM | > 20 µM | – | – | – | – | – | –
O=C1Nc2ccc(OC(F)(F)F)cc2/C1=C1/Nc2ccc(O)cc2C1=NO [Compound 11d, (2′Z, 3′E)-5′-Hydroxy-5-trifluoromethoxy-indirubin-3′-oxime] | 4.2 µM | 5.8 µM | 2.96 µM | 2.25 µM | 0.00832 µM | 2.28 µM | 5.9 µM | 16.9 µM | – | – | – | – | – | –
COc1ccc2c(c1)C(=NO)/C(=C1/C(=O)Nc3ccc(F)cc31)N2 [Compound 16b, (2′Z, 3′E)-5′-Methoxy-5-fluoro-indirubin-3′-oxime] | > 20 µM | > 20 µM | 13.6 µM | 3.59 µM | 4.12 µM | 4.84 µM | 5.29 µM | 6.71 µM | moderate anti-proliferative activity | – | – | – | – | –
O=C1Nc2ccc(F)cc2/C1=C1/Nc2ccc(Cl)cc2C1=NO [Compound 12c, (2′Z, 3′E)-5′-Chloro-5-fluoro-indirubin-3′-oxime] | 3.5 µM | 3.6 µM | 2.28 µM | 1.7 µM | 0.0101 µM | 3.62 µM | 14.7 µM | 18.9 µM | – | – | – | – | – | –
O=C1Nc2ccc(OC(F)(F)F)cc2/C1=C1/Nc2ccc(Cl)cc2C1=NO [Compound 12d, (2′Z, 3′E)-5′-Chloro-5-trifluoromethoxy-indirubin-3′-oxime] | 4.2 µM | 2.8 µM | 2.71 µM | 3.79 µM | 0.0762 µM | 17.7 µM | > 20 µM | > 20 µM | – | – | – | – | – | –
Cc1ccc2c(c1)C(=NO)/C(=C1/C(=O)Nc3ccc(OC(F)(F)F)cc31)N2 [Compound 14d, (2′Z, 3′E)-5′-Methyl-5-trifluoromethoxy-indirubin-3′-oxime] | 7.3 µM | 8.13 µM | > 20 µM | > 20 µM | – | > 20 µM | > 20 µM | > 20 µM | – | – | – | – | – | –
O=C1Nc2ccc([N+](=O)[O-])cc2/C1=C1/Nc2ccccc2C1=NO [Compound 1, 5-nitroindirubin-3′-oxime, reference compound] | – | – | – | – | 0.007 µM and 0.00735 µM | – | – | – | – | – | – | – | – | –
O=C1Nc2ccc(Cl)cc2/C1=C1/Nc2ccc(O)cc2C1=NO [Compound 11a, (2′Z, 3′E)-5′-Hydroxy-5-chloro-indirubin-3′-oxime] | 10.7 µM | 10.2 µM | 5.14 µM | 3.5 µM | 0.00527 µM | 2.92 µM | 12.2 µM | 16.4 µM | – | – | – | – | – | –
O=C1Nc2ccc(Cl)cc2/C1=C1/Nc2ccc(Cl)cc2C1=NO [Compound 12a, (2′Z, 3′E)-5′-Chloro-5-chloro-indirubin-3′-oxime] | 6.1 µM | 11.9 µM | 2.57 µM | 1.86 µM | 0.0111 µM | 12.2 µM | 17.2 µM | > 20 µM | – | – | – | – | – | –
O=C1Nc2ccc(OC(F)(F)F)cc2/C1=C1/Nc2ccc(F)cc2C1=NO [Compound 13d, (2′Z, 3′E)-5′-Fluoro-5-trifluoromethoxy-indirubin-3′-oxime] | 4.1 µM | 3.8 µM | 1.89 µM | 1.5 µM | 0.0603 µM | 3.95 µM | 1.5 µM | 19.9 µM | – | – | – | – | – | –
O=C1Nc2ccc(Cl)cc2/C1=C1/Nc2ccc(F)cc2C1=NO [Compound 13a, (2′Z, 3′E)-5′-Fluoro-5-chloro-indirubin-3′-oxime] | 7 µM | 9.1 µM | 6.32 µM | 3.3 µM | 0.00801 µM | 5.33 µM | 7.14 µM | > 20 µM | – | – | – | – | – | –
O=C1Nc2ccc(F)cc2/C1=C1/Nc2ccc(F)cc2C1=NO [Compound 13c, (2′Z, 3′E)-5′-Fluoro-5-fluoro-indirubin-3′-oxime] | 6.57 µM | 13.2 µM | 2.23 µM | 13.5 µM | 0.00183 µM | 8.6 µM | 15.9 µM | 10.3 µM | – | approximately 4 fold | – | – | – | –
O=C1Nc2ccc([N+](=O)[O-])cc2/C1=C1/Nc2ccc(F)cc2C1=NO [Compound 13b, (2′Z, 3′E)-5′-Fluoro-5-nitro-indirubin-3′-oxime] | 0.9 µM | 0.9 µM | 0.94 µM | ~0.3 µM | 0.00171 µM | 0.64 µM | 0.46 µM | 0.57 µM | – | approximately 4 fold | 0.2 to 3.3 µM | 0.28 µM | – | –
O=C1Nc2ccc(F)cc2/C1=C1/Nc2ccc(O)cc2C1=NO [Compound 11c, (2′Z, 3′E)-5′-Hydroxy-5-fluoro-indirubin-3′-oxime] | 2.6 µM | 4.6 µM | 2.11 µM | 1.66 µM | 0.00225 µM | 0.68 µM | 1.4 µM | 4.09 µM | – | – | – | – | – | –
Cc1ccc2c(c1)C(=NO)/C(=C1/C(=O)Nc3ccc(Cl)cc31)N2 [Compound 14a, (2′Z, 3′E)-5′-Methyl-5-chloro-indirubin-3′-oxime] | 8.79 µM | 5.18 µM | 12.7 µM | 18.8 µM | – | > 20 µM | > 20 µM | > 20 µM | – | – | – | – | – | –
Cc1ccc2c(c1)C(=NO)/C(=C1/C(=O)Nc3ccc([N+](=O)[O-])cc31)N2 [Compound 14b, (2′Z, 3′E)-5′-Methyl-5-nitro-indirubin-3′-oxime] | 1.06 µM | 2.1 µM | 1.06 µM | 1.41 µM | 0.00868 µM | 3.92 µM | 0.8 µM | > 20 µM | – | – | 0.8 to 1 µM | – | 7 fold | 270 fold
